Data taken from PubChem BioAssay (NCI).
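Grown in 96-well plates, cells were treated for 48 hours with each compound at five concentrations. Insufficient inhibition: endpoint recorded as highest concentration tested. At the TGI there is no net growth.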

Assays:
Assay in all cases: NCI anticancer screen, dose series, 48 h
[1] = system: 786-0 renal
[2] = system: A498 renal
[3] = system: A549 NSCLC
[4] = system: ACHN renal
[5] = system: CAKI-1 renal
[6] = system: CCRF-CEM leukemia
[7] = system: DLD-1 colon
[8] = system: DMS 114 small cell lung
[9] = system: DMS 273 small cell lung
[10] = system: EKVX NSCLC
[11] = system: HCC-2998 colon
[12] = system: HCT-116 colon
[13] = system: HL-60(TB) leukemia
[14] = system: HOP-62 NSCLC
[15] = system: HOP-92 NSCLC
[16] = system: HT29 colon
[17] = system: IGROV1 ovarian
[18] = system: K-562 leukemia
[19] = system: KM12 colon
[20] = system: KM20L2 colon
[21] = system: LXFL 529 NSCLC
[22] = system: M14 melanoma
[23] = system: M19-MEL melanoma
[24] = system: MALME-3M melanoma
[25] = system: MOLT-4 leukemia
[26] = system: NCI-H226 lung
[27] = system: NCI-H23 lung
[28] = system: NCI-H460 lung
[29] = system: NCI-H522 lung
[30] = system: OVCAR-3 ovarian
[31] = system: OVCAR-4 ovarian
[32] = system: OVCAR-5 ovarian
[33] = system: OVCAR-8 ovarian
[34] = system: RXF 393 renal
[35] = system: RXF-631 renal
[36] = system: SF-268 CNS
[37] = system: SF-295 CNS
[38] = system: SF-539 CNS
[39] = system: SK-MEL-2 melanoma
[40] = system: SK-MEL-28 melanoma
[41] = system: SK-MEL-5 melanoma
[42] = system: SK-OV-3 ovarian
[43] = system: SN12C renal
[44] = system: SNB-19 CNS
[45] = system: SNB-75 CNS
[46] = system: SNB-78 CNS
[47] = system: SR leukemia
[48] = system: SW-620 colon
[49] = system: TK-10 renal
[50] = system: U251 CNS
[51] = system: UACC-257 melanoma
[52] = system: UACC-62 melanoma
[53] = system: UO-31 renal
[54] = system: XF 498 CNS
[55] = system: COLO 205 colon
[56] = system: HCT-15 colon
[57] = system: HOP-18 NSCLC
[58] = system: LOX IMVI melanoma
[59] = system: RPMI-8226 leukemia

Structure (SMILES): CC1C=CC(O)[C@]2(CO)CC3(CCC12)OCCO3 (some centres not stated)
- TGI [1]: > 100 µM
- TGI [2]: > 100 µM
- TGI [3]: > 100 µM
- TGI [4]: > 100 µM
- TGI [5]: > 100 µM
- TGI [6]: > 100 µM
- TGI [7]: > 100 µM
- TGI [8]: > 100 µM
- TGI [9]: > 100 µM
- TGI [10]: > 100 µM
- TGI [11]: > 100 µM
- TGI [12]: > 100 µM
- TGI [13]: > 100 µM
- TGI [14]: > 100 µM
- TGI [15]: > 100 µM
- TGI [16]: > 100 µM
- TGI [17]: > 100 µM
- TGI [18]: > 100 µM
- TGI [19]: > 100 µM
- TGI [20]: > 100 µM
- TGI [21]: > 100 µM
- TGI [22]: > 100 µM
- TGI [23]: > 100 µM
- TGI [24]: > 100 µM
- TGI [25]: > 100 µM
- TGI [26]: > 100 µM
- TGI [27]: > 100 µM
- TGI [28]: > 100 µM
- TGI [29]: > 100 µM
- TGI [30]: > 100 µM
- TGI [31]: > 100 µM
- TGI [32]: > 100 µM
- TGI [33]: > 100 µM
- TGI [34]: > 100 µM
- TGI [35]: > 100 µM
- TGI [36]: > 100 µM
- TGI [37]: > 100 µM
- TGI [38]: > 100 µM
- TGI [39]: > 100 µM
- TGI [40]: > 100 µM
- TGI [41]: > 100 µM
- TGI [42]: > 100 µM
- TGI [43]: > 100 µM
- TGI [44]: > 100 µM
- TGI [45]: > 100 µM
- TGI [46]: > 100 µM
- TGI [47]: > 100 µM
- TGI [48]: > 100 µM
- TGI [49]: > 100 µM
- TGI [50]: > 100 µM
- TGI [51]: > 100 µM
- TGI [52]: > 100 µM
- TGI [53]: > 100 µM
- TGI [54]: > 100 µM

Structure (SMILES): O=C(O)c1ccccc1NS(=O)(=O)c1ccc([N+](=O)[O-])cc1
- TGI [1]: > 100 µM
- TGI [3]: > 100 µM
- TGI [4]: > 100 µM
- TGI [5]: > 100 µM
- TGI [6]: > 100 µM
- TGI [55]: > 100 µM
- TGI [9]: > 100 µM
- TGI [10]: > 100 µM
- TGI [11]: > 100 µM
- TGI [12]: > 100 µM
- TGI [56]: > 100 µM
- TGI [57]: > 100 µM
- TGI [14]: > 100 µM
- TGI [16]: > 100 µM
- TGI [17]: > 100 µM
- TGI [18]: > 100 µM
- TGI [19]: > 100 µM
- TGI [20]: > 100 µM
- TGI [58]: > 100 µM
- TGI [21]: > 100 µM
- TGI [22]: > 100 µM
- TGI [24]: > 100 µM
- TGI [25]: > 100 µM
- TGI [26]: > 100 µM
- TGI [27]: > 100 µM
- TGI [28]: > 100 µM
- TGI [29]: > 100 µM
- TGI [30]: > 100 µM
- TGI [31]: > 100 µM
- TGI [32]: > 100 µM
- TGI [33]: > 100 µM
- TGI [59]: > 100 µM
- TGI [34]: > 100 µM
- TGI [35]: > 100 µM
- TGI [36]: > 100 µM
- TGI [37]: > 100 µM
- TGI [38]: > 100 µM
- TGI [39]: > 100 µM
- TGI [40]: > 100 µM
- TGI [41]: > 100 µM
- TGI [42]: > 100 µM
- TGI [43]: > 100 µM
- TGI [44]: > 100 µM
- TGI [45]: > 100 µM
- TGI [46]: > 100 µM
- TGI [48]: > 100 µM
- TGI [49]: > 100 µM
- TGI [50]: > 100 µM
- TGI [51]: > 100 µM
- TGI [52]: > 100 µM
- TGI [53]: > 100 µM
- TGI [54]: > 100 µM

Structure (SMILES): COc1ccc(O)c2c(=O)ccccc12
- TGI [1]: > 100 µM
- TGI [2]: > 100 µM
- TGI [3]: > 100 µM
- TGI [4]: > 100 µM
- TGI [6]: > 100 µM
- TGI [55]: > 100 µM
- TGI [7]: > 100 µM
- TGI [8]: > 100 µM
- TGI [9]: > 100 µM
- TGI [10]: > 100 µM
- TGI [11]: > 100 µM
- TGI [12]: > 100 µM
- TGI [56]: > 100 µM
- TGI [13]: > 100 µM
- TGI [14]: > 100 µM
- TGI [15]: > 100 µM
- TGI [16]: > 100 µM
- TGI [17]: > 100 µM
- TGI [18]: > 100 µM
- TGI [19]: > 100 µM
- TGI [58]: > 100 µM
- TGI [21]: > 100 µM
- TGI [22]: > 100 µM
- TGI [23]: > 100 µM
- TGI [24]: > 100 µM
- TGI [25]: > 100 µM
- TGI [26]: > 100 µM
- TGI [27]: > 100 µM
- TGI [28]: > 100 µM
- TGI [29]: 91.7 µM
- TGI [30]: > 100 µM
- TGI [31]: > 100 µM
- TGI [32]: > 100 µM
- TGI [33]: > 100 µM
- TGI [59]: > 100 µM
- TGI [34]: > 100 µM
- TGI [35]: > 100 µM
- TGI [36]: > 100 µM
- TGI [37]: > 100 µM
- TGI [38]: > 100 µM
- TGI [39]: > 100 µM
- TGI [40]: > 100 µM
- TGI [41]: > 100 µM
- TGI [42]: > 100 µM
- TGI [43]: > 100 µM
- TGI [44]: > 100 µM
- TGI [45]: > 100 µM
- TGI [46]: > 100 µM
- TGI [47]: > 100 µM
- TGI [48]: > 100 µM
- TGI [49]: 60 µM
- TGI [50]: > 100 µM
- TGI [51]: > 100 µM
- TGI [52]: > 100 µM
- TGI [53]: > 100 µM
- TGI [54]: > 100 µM
